Test results as given in patent US10239871B2, “Compounds and methods for regulating integrins” (ADHAERE PHARMACEUTICALS, INC., priority 2012, dated 2019).
Blank lines part the entries; values can stand above or below the compound they belong to.

Experiments:
[1] = system: RAW 264.7 macrophage cells; test: Wound healing assay (macrophage migration); assay type: cell-based, murine; conditions: LPS 100 ng/mL or PMA 100 nM vs unstimulated (DMSO), 48 hours
Procedure: Murine RAW 264.7 macrophage cells were grown in DMEM 10% FBS medium in T75 flasks to 70% confluence. The cells were detached by trypsin treatment for 10 minutes at 37° C. and evenly reseeded in 24 well plates and allowed to attain >70% confluency. A scratch was introduced horizontally across the well using 200 µL tip applying even force throughout the etching and holding the tip at approximately an 80 degree angle. The wells were subsequently washed and fresh medium containing various treatment groups was introduced. The wound was imaged using 10× objective. The cells were allowed to grow for 48 hours and the wound was reimaged at the same field after 48 hours. The average extent of wound closure was evaluated by measuring the width of the wound. The area healed was analyzed using ImageJ software and is expressed as percentage healing after 48 hours.
For FIG. 4B, RAW 264.7 cells were plated in 24-well tissue culture plates (2×10^6 cells/well) and allowed to adhere in complete media for 12 hours. […] Images of the cells in culture were obtained immediately prior to (0 hours) and after the completion of the experiment (48 hours) using an inverted phase contrast microscope attached to a video camera.
Representative data shown here are from a triplicate well experiment from one of at least two to three independent experiments. **p<0.001, ***p<0.0001.

[2] = system: Human macrophages; test: TNF-α release from human macrophages; assay type: cell-based; conditions: n=14
[3] = system: Cl66 cells; test: Orthotopic Cl66 mammary adenocarcinoma tumor growth, with or without Taxol; assay type: in vivo; conditions: BALB/c mice, vs vehicle
Procedure: The syngeneic murine mammary adenocarcinoma cell line Cl66 (moderately metastatic and is related to the highly metastatic 4T1 cell line) was orthotopically introduced in Balb/c animals, by injecting ˜5×10^5 Cl66 cells under the left mammary fat pad of WT BALB/c mice (approx. 8-10 weeks old). The tumor size was measured using calipers every other day until the end of the experiment (approx. 5 weeks). 7-days post implantation, the tumors in all animals became palpable, with an average size of ˜100 mm3. At that time, animals in each group were treated as described. LA1 was administered daily for the first two weeks and then every other day until the end of the experiment. Animals in Group 1 received Saline injections, as control. […] It can also enhance the efficacy of traditional chemotherapy in various cancers, including breast cancer, to produce a synergistic response to the treatment. It can also reduce the incidence and the size of metastases.

[4] = system: patients; conditions: cited from earlier work
[5] = target: CD11b/CD18 (Homo sapiens, UniProt P11215); test: Immunofluorescence microscopy of CD11b/CD18 clustering on K562 WT cells; assay type: cell-based; set-up: K562 cells stably transfected with plasmid encoding wild-type integrin CD11b/CD18; expressed in transfected cells; conditions: presence of fibrinogen 50 μg/mL
Procedure: To visualize changes upon ligand binding, fibrinogen (50 μg/mL) was also added to the cell suspension media in a second set of incubations. The cells were fixed in suspension and incubated with mAb 184, which is specific for CD11b/CD18, followed by Alexa Fluor 488-conjugated goat antibody against mouse Ig (Sigma). Fluorescence images were recorded with a Leica DMI16000 deconvolution microscope using an HCX APO 40×/0.75 DRY objective with a DCF360FX camera and with Leica LAS-AF software. A 3-dimensional representation of CD11b/CD18 fluorescence intensity and the analysis of the number of CD11b/CD18 clusters per cell was performed using ImageJ software as described. Clustering determination was carried out by counting individual fluorescent peaks that were projected from the basal to the apical side of the cell and were at least 50% above the base line levels. The images presented are representative of at least 20 cells analyzed for each condition from at least three independent experiments.
Therefore, to investigate, a combination of confocal microscopy (to study clustering) and western blotting assays (to study intracellular signaling) using K562 WT cells were used. First, CD11b/CD18 cell-surface distribution and macro clustering was studied under various conditions using confocal microscopy. K562 WT cells in suspension were incubated with various agonists, fixed with paraformaldehyde and the surface expressed CD11b/CD18 was fluorescently stained with anti-CD11b/CD18 mAb 1B4. […] The fluorescence images shown are representative of three independent experiments. […] Also shown below each image is a 3D representation of CD11b fluorescence intensity for selected cells, analyzed in ImageJ In FIG. 5B, data shown are mean±SEM from >40 cells per condition and from >3 independent experiments for each condition. ***p<0.0001, ns=not significant.

[6] = system: MAPK signaling (pERK, pJNK) in K562 WT cells; test: Western blotting of pERK and pJNK in K562 WT cells; assay type: cell-based, human; conditions: CD11b/CD18 ligation with fibrinogen, all conditions
Procedure: K562 WT cells were incubated with LA1, LA2, LA15 (15 μM), or fibrinogen (200 μg) in serum-free medium for 1 hour at 37° C. Cell lysates were resolved on 4-12% NuPAGE Bis-Tris SDS-PAGE gels using MES running buffer and transferred to a polyvinylidene difluoride (PVDF) membrane (ThermoScientific) using established protocols. Membranes were incubated with a 1:1,000 dilution of the anti-phospho-protein antibodies (anti phospho-p44/42 MAPK (pERK1/2) antibody (Thr202/Tyr204, Cell Signaling) or anti-phospho-SAPK/JNK (pJNK) antibody (Thr183/Tyr185, Cell Signaling #81E11)), or with an antibody against either total ERK1/2 (p44/42 MARK (Erk1/2), Cell Signaling #137F5) or total JNK (SAPK/JNK, Cell Signaling #56G8) and developed according to the manufacturer's instructions (ThermoScientific). Proteins were quantified by densitometry using ImageJ software. […]
Second, an effect of integrin ligation, macro clustering and redistribution in the plasma membrane is the triggering of outside-in intracellular signaling in cells via various MAPKs. […] In FIGS. 6A-6B, immunoblot results from two independent experiments were quantified using ImageJ software and ratio of phosphorylated protein to total protein was determined. Histograms showing this quantitation for each set are also shown. […] In FIGS. 6C-6D, immunoblot results from two independent experiments were quantified and are also shown, as in 6A and 6B.

Compound: CCCCCCCCCCCCCC(=O)O[C@@H]1[C@@H](C)[C@@]2(O)[C@@H](C=C(CO)C[C@]3(O)C(=O)C(C)=C[C@@H]23)[C@@H]2C(C)(C)[C@]12OC(C)=O [PMA, phorbol-12-myristate-13-acetate, reference compound]
migration of macrophages into the wound area upon stimulation [1]: significantly induced the migration of macrophages

Compound: CCOCc1nc2c(N)nc3ccccc3c2n1CC(C)(C)O [R848, reference compound]
TNF-α release, stimulus alone vs macrophages alone [2]: significantly stimulated TNF-α release

Compound: CC(=O)O[C@H]1C(=O)[C@@]2(C)[C@H]([C@H](OC(=O)c3ccccc3)[C@]3(O)C[C@H](OC(=O)[C@H](O)[C@@H](NC(=O)c4ccccc4)c4ccccc4)C(C)=C1C3(C)C)[C@]1(OC(C)=O)CO[C@@H]1C[C@@H]2O [Taxol, reference compound]
rate of tumor growth, single agent [3]: significant reduction in the rate of tumor growth

Compound: CC(=O)O[C@@]12CO[C@@H]1C[C@H](O)[C@@]1(C)C(=O)[C@H](O)C3=C(C)[C@@H](OC(=O)[C@H](O)[C@@H](NC(=O)OC(C)(C)C)c4ccccc4)C[C@@](O)([C@@H](OC(=O)c4ccccc4)[C@H]21)C3(C)C [docetaxel]
incidence rate of bradycardia [4]: 1.7%

CD11b/CD18 macro clustering on cell surface [5]: significant CD11b/CD18 macro clustering
Compound: fibrinogen [reference compound]
phosphorylated ERK (pERK) and phosphorylated JNK (pJNK) [6]: high levels of both pERK and pJNK
